Columns and labels:
Assay type in all cases: cell-based
[1] = test system: Septoria tritici; assay: Activity against leaf blotch on wheat caused by Septoria tritici (microtiter plate test); conditions: 0.25 ppm; 7 days after inoculation, 405 nm
[2] = test system: Sclerotinia sclerotiorum; assay: Activity against stem rot on wheat caused by Sclerotinia sclerotiorum (microtiter plate test); conditions: 7 days after inoculation, 405 nm
[3] = test system: Botrytis cinerea; assay: Activity against the grey mold Botrytis cinerea in the microtiterplate test; conditions: 7 days after inoculation, 405 nm
[4] = test system: Pyricularia oryzae; conditions: 4 ppm; 7 days after inoculation, 405 nm

| Structure (SMILES) | Observed efficacy [1] [%] | Observed efficacy ([2]; 1 ppm) [%] | Observed efficacy ([2]; 4 ppm) [%] | Observed efficacy ([2]; 16 ppm) [%] | Observed efficacy ([3]; 1 ppm) [%] | Observed efficacy ([3]; 4 ppm) [%] | Observed efficacy [4] [%] |
| --- | --- | --- | --- | --- | --- | --- | --- |
| O=C(Nc1ccccc1-c1ccc(Cl)cc1)c1cccnc1Cl [Boscalid, 2-chloro-N-(4'-chlorobiphenyl-2-yl)-nicotinamide] | 40 |  |  |  |  |  |  |
| Cc1cc(C)nc(Nc2ccccc2)n1 [Pyrimethanil, 4,6-dimethylpyrimidin-2-ylphenylamine] |  | 20 | 27 | 49 | 39 | 60 | 37 |
